These results are taken from patent publication US12220394B2, “Pharmaceutical composition for prevention or treatment of kidney damage” (National University Corporation Kanazawa University, priority 2018, dated 2025).

Series [1] has as its system kidney tissue after ischemia reperfusion. Put plainly: PAS staining and ATN score of kidney tissue sections after renal ischemia reperfusion. The conditions noted are these: 10 days after ischemia reperfusion. In kind it is in vivo, C57BL/6J mice. Here is the method:
The animals were reared with free access to water and feed under conditions with an SPF environment and 12-hour light-dark cycling. C57BL/6J mice were purchased from Clea Japan, Inc. (Osaka). Male 12- to 16-week-old mice were treated by renal ischemia reperfusion (hereunder also referred to as “I/R”). The renal pedicles were clamped with a non-traumatic clip (Natsume Seisakusho, Tokyo) under pentobarbital anesthesia to elicit ischemia. The clips were released after 40 minutes. The body temperature was kept at 37° C. during treatment. […] On day 10 after IR treatment, the kidney tissues were sampled. After ischemia reperfusion, the kidneys sampled on day 10 were fixed with 10% neutral buffered formalin and embedded in paraffin, and then stained with periodic acid-Schiff (PAS staining). The stained slices were photographed with a bright-field microscope (FIG. 1). Debris stained with PAS (skin boundary) or brush border (skin boundary and cortical region) were quantitatively evaluated in at least 10 different locations. The debris, renal tubular dilation, brush border damage, and renal tubule necrosis were evaluated by ATN score (0: none, 1: mild, 2: moderate, 3: severe). Sample evaluation was carried out blind.

In series [2] the test system is macrophages in kidney tissue. Put plainly: F4/80 immunostaining of kidney tissue after renal ischemia reperfusion. In kind it is in vivo, C57BL/6J mice. Here is the method: The animals were reared with free access to water and feed under conditions with an SPF environment and 12-hour light-dark cycling. C57BL/6J mice were purchased from Clea Japan, Inc. (Osaka). Male 12- to 16-week-old mice were treated by renal ischemia reperfusion (hereunder also referred to as “I/R”). The renal pedicles were clamped with a non-traumatic clip (Natsume Seisakusho, Tokyo) under pentobarbital anesthesia to elicit ischemia. The clips were released after 40 minutes. The body temperature was kept at 37° C. during treatment. The mice were reared with free access to water (control) or 20 mM D-alanine-containing water, prior to 14 days after IR treatment. On day 10 after IR treatment, the kidney tissues were sampled. After ischemia reperfusion, the kidney tissues harvested on day 10 were fixed with 10% neutral buffered formalin and supplied for immunostaining using F4/80 antibody (Invitrogen, catalog #: MF48,000). F4/80 is a protein expressed specifically by macrophages, and it allows visualization of macrophages in kidney tissue. In the water-administered control group, cells stained with F4/80 were found accumulated in kidney tissue ([…]), but in the D-alanine-administered groups (20 mM and 80 mM) such cellular accumulation was minimal (FIG. 3(A)). The proportion of stained region in each group was measured (FIG. 3(B)).

For series [3] the following is noted: cited from earlier work.
Series [4] deals with fibrotic tissue in kidney. Kind of series: AZAN staining of kidney tissue after renal ischemia reperfusion. In kind it is in vivo, C57BL/6J mice. As for the experimental part:
The animals were reared with free access to water and feed under conditions with an SPF environment and 12-hour light-dark cycling. C57BL/6J mice were purchased from Clea Japan, Inc. (Osaka). Male 12- to 16-week-old mice were treated by renal ischemia reperfusion (hereunder also referred to as “I/R”). The renal pedicles were clamped with a non-traumatic clip (Natsume Seisakusho, Tokyo) under pentobarbital anesthesia to elicit ischemia. The clips were released after 40 minutes. The body temperature was kept at 37° C. during treatment. The mice were reared with free access to water (control) or 20 mM D-alanine-containing water, prior to 14 days after IR treatment. On day 10 after IR treatment, the kidney tissues were sampled. After ischemia reperfusion, the kidney tissues sampled on day 10 were fixed with 10% neutral buffered formalin and provided for AZAN staining. In AZAN staining, fibrotic tissue is stained with aniline blue. […] The proportion of stained region in each group was measured (FIG. 4(B)).

Where [5] appears, read: D-alanine group compared with water group.
[6] abbreviates: 10 days after ischemia reperfusion, D-alanine group vs water group.

`C[C@@H](N)C(=O)O` [D-alanine]: the “PAS staining intensity of kidney tissue section (accumulation of inflammatory cells such as neutrophils and eosinophils)” value in series [1] (D-alanine 20 mM and 80 mM in drinking water vs water group) is reported as “decreased in a dose-dependent manner”. Moreover, in series [1] (setting [5]), the “grade of brush border region in kidney tissue section (ATN score)” value is given as “improved in a dose-dependent manner”, the “grade of intraluminal debris in kidney tissue section (ATN score)” value is on record as “improved in a dose-dependent manner” and the “grade of necrosis in kidney tissue section (ATN score)” value is listed as “improved in a dose-dependent manner”. Besides, the “F4/80 staining intensity of kidney tissue section (accumulation of macrophages and monocytes)” value in series [2] (setting [6]) was “decreased in a dose-dependent manner”. Besides, in series [2] (after ischemia reperfusion, D-alanine 20 mM and 80 mM vs water-administered control), the “accumulation of cells stained with F4/80 in kidney tissue” value is listed as “minimal”. The “adverse events when used as a food” value in series [3] (ingestion on the order of 10 g) is recorded as “No adverse events have been reported”. In series [3] (oral administration), the “toxicity via oral administration” value is “no reported toxicity”. Besides, the “AZAN staining intensity of kidney tissue section (fibrosis)” value in series [4] (setting [6]) is recorded as “decreased in a dose-dependent manner”. In addition, the “aniline blue-stained regions (fibrotic tissue) in kidney tissue” value in series [4] (day 10 after ischemia reperfusion, D-alanine 20 mM and 80 mM vs water-administered control) is “reduced in a dose-dependent manner”.
